Consider ten compounds from patent US9545100B2, “Pesticidal compositions for insects and arthropods” (Stratacor, Inc., priority 2009, dated 2017).

Molecules are shown by their SMILES. Where two headings read alike, the source gives them in different places.

The subject of data set [1] is Aedes aegypti mosquitoes. The experiment in a line: Olfactometer vapor phase repellency. The data set is classed as in vivo. The following applies: FIG. 1. The text has this:
As frequently seen in homologous series of insect repellents (Skinner, W. A. and Johnson, H. L. The design of insect repellents. In: Drug Design, Vol. 10, E J Ariens, Ed., Academic Press, New York, pp. 277-305, 1980), activity at lower chain length is limited by lack of persistence due to high volatility. Activity at higher chain length is limited by lack of volatility, as mosquito repellents are required to have a minimum effective evaporation rate (Reifenrath, W. G. and Robinson, P. B. In Vitro Skin Evaporation and Penetration Characteristics of mosquito repellents. J. Pharm. Sci, 71:1014-1018, 1982; Reifenrath, W. G. and Spencer, T. S. Evaporation and penetration from skin. In: Percutaneous Absorption Mechanisms Methodology Drug Delivery, R L Bronaugh and H I Maibach, Eds., 1st Ed., Marcel Dekker, New York, pp. 305-325, 1985).
The straight chain fatty acids octanoic, nonanoic, decanoic, undecanoic, and lauric are designated as C8 through C12, respectively; 3-methylpentanoic acid as 3MPENTAN, 3-methyl-2-pentenoic acid as 3M2PENTEN, 2-octenoic acid as 2OCTEN, 3-methyl-2-octenoic acid as 3M2OCTEN, and 4-methyloctanoic acid as 4MOCTAN. N,N-Diethyl-m-toluamide is designated as DEET.

Data set [2] has as its system eggs of Aedes aegypti. The following applies: Cline 1972; cited from earlier work.
The test system of data set [3] is Aedes aegypti mosquitoes. On the procedure: Fifteen female Aedes aegypti mosquitoes were placed in the dishes and their fate observed over a 48 hour period.
To further investigate the incapacitating and lethal effect of the C8910 composition, water dispersions of the same formulation of C8910 were tested in the laboratory against Aedes aegypti mosquitoes. Graded dilutions of C8910/Kaolin-P were prepared by dispersing the powder in water (2 grams of powder in 100 ml of water, the concentration used in the field) where the lowest concentration was 0.0075% (Table 1). One ml of each dispersion was evenly pipetted over a disk of filter paper (9 cm diameter, Whatman No. 1) contained in disposable petri dishes. Approximately 15 female Aedes aegypti mosquitoes, 6-10 days of age, were placed in the Petri dishes and covered to prevent mosquito escape. The dishes were maintained in an environmental chamber (76-80° F. and approximately 60% humidity) and observations were made of incapacitation and mortality at various times after treatments (Table 1).

Data set [4] concerns Aedes aegypti. Put plainly: Minimum effective dose to repel mosquitoes, applied to the skin. The format is in vivo. On the procedure:
Notes: • 1. Even at the lowest dose (1.18 ug/cm2), there are behavioral effects from […]. […] After 16 minutes exposure, mosquitoes were transferred to fresh plates containing only distilled water. […] […] and DEET (N,N-diethyl-m-toluamide) have similar potencies to repel Aedes aegypti when both are applied to the skin. The minimum effective dose (MED) of […] to repel mosquitoes is estimated at 25 ug/cm^2, the measured MED value for DEET.

Data set [5] relates to flies.
Data set [6] relates to house fly larvae. Particulars: Levinson and Simon Ascher 1954; cited from earlier work.
Data set [7] concerns Aedes aegypti instar IV larvae and pupae. The following applies: Quraishi and Thorsteinson 1965; cited from earlier work.
For data set [8] the following is noted: emulsion formulations; cited from earlier work.
For data set [9] the following is noted: 20° C.; cited from earlier work.
[10] abbreviates: 0.3000% in water dispersion, dose 47 ug/cm2.

Consider `CCCCCCCC(=O)O` [C8, octanoic acid], for which the repellency in olfactometer result in [1] is listed as “at or near the top of the repellency”. Besides, in data set [2], the ovicidal activity entry is recorded as “ovicidal activity”.
In the case of `CCCCCCCCC(=O)O` [C9, nonanoic acid], in data set [1], the repellency in olfactometer entry is “at or near the top of the repellency”. Moreover, the ovicidal activity result in [2] was “ovicidal activity”.
As for `CCCCCCCCCC(=O)O` [C10, decanoic acid], in [1], the repellency in olfactometer result is “at or near the top of the repellency”.
Regarding `CCN(CC)C(=O)c1cccc(C)c1` [DEET, N,N-diethyl-m-toluamide], in data set [3] (47 ug/cm^2), the immediate incapacitation result is listed as “did not involve immediate incapacitation”; the “mortality at 24 hours” value is “did cause fly and mosquito mortality”. Further, the “minimum effective dose (MED) to repel mosquitoes” value in data set [4] is 25 ug/cm^2. In addition, in data set [5] (47 ug/cm^2), the immediate incapacitation entry is “did not involve immediate incapacitation”; the “mortality at 24 hours” value is “did cause fly and mosquito mortality”.
Turning to `CC(O)C(=O)O` (stereo not shown) [Lactic Acid, lactic acid], in [3] (setting [10]), the “% Incapac. in 10 m exp.” value was determined as 0%, the “% Incapac. in 25 m exp.” value is listed as 0%, the “% Incapac. in 24 h exp.” value was found to be 17% and the “% motality at 24 hours” value turned out to be 17%. For the same compound, the “% motality at 48 hours” value in [3] (setting [10]) was 17%. For the same compound, the “% Incapac. in 10 m exp.” value in data set [3] (0.3000% in water dispersion, dose 47 ug/cm2, listed as lactic acid) is “no incapacitation”. Besides, in [3] (0.3000%, dose 47 ug/cm2), the “number dead, noted beside % Incapac. in 24 h exp.” value is “(2 dead)”. Moreover, the toxicity to flies result in data set [5] (test of acidic pH) was “nontoxic to flies”.
Take `CCCCCCCCCCCC(=O)O` [Lauric acid, lauric acid]: in [5] (EC formulation), the toxicity to flies entry is “non-toxic”. In addition, in data set [6], the “larvicidal activity for housefly larvae” value is on record as “declining activity”. Also, the “toxicity to instar IV larvae and pupae” value in data set [7] is “not”.
On to `CCN(CC)CC(=O)Nc1c(C)cccc1C` [lidocaine free base, lidocaine], for which the fly incapacitation entry in [5] (freshly prepared aqueous emulsions 47 ug/cm^2 or 15% concentration in mineral oil) is “did not cause fly incapacitation”.
`CC1(C)C(C=C(Cl)Cl)C1C(=O)OCc1cccc(Oc2ccccc2)c1` (stereo not shown) [permethrin]: the reversibility of incapacitation entry in data set [3] (dose of 4.7 ug/cm^2) and in data set [5] (dose of 4.7 ug/cm^2) was “irreversible” throughout. In data set [8], the skin absorption result is reported as “about 30%”. In addition, the vapor pressure entry in data set [9] is given as “about 10^−8 mm Hg”.
Take `CCCCCCCCCCC(=O)O` [undecanoic acid]: the “larvicidal activity for housefly larvae” value in data set [6] is given as “declining activity”.
With `C=CCCCCCCCCC(=O)O` [undecylenic], in [2], the ovicidal activity result was “ovicidal activity”.
